In the NIST ThermoML archive (doi:10.1021/acs.jced.7b00176):
Numbers after ± are expanded uncertainties.

Assay: xn = mol fraction of the nth substance listed
Conditions: Liquid, Vibrating tube method

SMILES: COCCOCCOC [2,5,8-trioxanonane] + CCCCO
- mass density (323.26 K, 30000 kPa, x2 = 0.7308): 855.36 ± 0.66 kg/m3
- mass density (323.27 K, 100 kPa, x2 = 0.3116): 884.02 ± 0.62 kg/m3
- mass density (323.27 K, 5000 kPa, x2 = 0.3116): 888.39 ± 0.62 kg/m3
- mass density (323.27 K, 40000 kPa, x2 = 0.7308): 862.01 ± 0.68 kg/m3
- mass density (323.27 K, 60000 kPa, x2 = 0.7308): 874.24 ± 0.72 kg/m3
- mass density (323.27 K, 80000 kPa, x2 = 0.7308): 885.1 ± 0.75 kg/m3
- mass density (323.27 K, 100000 kPa, x2 = 0.7308): 894.94 ± 0.77 kg/m3
- mass density (323.28 K, 1000 kPa, x2 = 0.3116): 884.84 ± 0.61 kg/m3
- mass density (323.28 K, 10000 kPa, x2 = 0.3116): 892.57 ± 0.62 kg/m3
- mass density (323.28 K, 20000 kPa, x2 = 0.3116): 900.61 ± 0.63 kg/m3
- mass density (323.28 K, 30000 kPa, x2 = 0.3116): 907.85 ± 0.63 kg/m3
- mass density (323.28 K, 40000 kPa, x2 = 0.3116): 914.76 ± 0.64 kg/m3
- mass density (323.28 K, 80000 kPa, x2 = 0.3116): 938.32 ± 0.66 kg/m3
- mass density (323.29 K, 100 kPa, x2 = 0.8787): 809.04 ± 0.63 kg/m3
- mass density (323.29 K, 1000 kPa, x2 = 0.8787): 809.88 ± 0.61 kg/m3
- mass density (323.29 K, 5000 kPa, x2 = 0.8787): 813.32 ± 0.62 kg/m3
- mass density (323.29 K, 10000 kPa, x2 = 0.8787): 817.49 ± 0.63 kg/m3
- mass density (323.29 K, 20000 kPa, x2 = 0.8787): 825.25 ± 0.65 kg/m3
- mass density (323.29 K, 30000 kPa, x2 = 0.8787): 832.38 ± 0.67 kg/m3
- mass density (323.29 K, 40000 kPa, x2 = 0.8787): 838.96 ± 0.69 kg/m3
- mass density (323.29 K, 60000 kPa, x2 = 0.3116): 927.16 ± 0.66 kg/m3
- mass density (323.29 K, 60000 kPa, x2 = 0.8787): 850.97 ± 0.75 kg/m3
- mass density (323.29 K, 80000 kPa, x2 = 0.8787): 861.63 ± 0.79 kg/m3
- mass density (323.29 K, 100000 kPa, x2 = 0.3116): 948.49 ± 0.66 kg/m3
- mass density (323.29 K, 100010 kPa, x2 = 0.8787): 871.34 ± 0.83 kg/m3
- mass density (342.49 K, 100 kPa, x2 = 0): 894.03 ± 0.61 kg/m3
- mass density (342.49 K, 1000 kPa, x2 = 0): 894.98 ± 0.61 kg/m3
- mass density (342.49 K, 5000 kPa, x2 = 0): 898.96 ± 0.61 kg/m3
- mass density (342.5 K, 10000 kPa, x2 = 0): 903.66 ± 0.62 kg/m3
- mass density (342.5 K, 20000 kPa, x2 = 0): 912.57 ± 0.62 kg/m3
- mass density (342.51 K, 30000 kPa, x2 = 0): 920.68 ± 0.63 kg/m3
- mass density (342.51 K, 40000 kPa, x2 = 0): 928.18 ± 0.63 kg/m3
- mass density (342.51 K, 60000 kPa, x2 = 0): 941.77 ± 0.65 kg/m3
- mass density (342.51 K, 80000 kPa, x2 = 0): 953.82 ± 0.65 kg/m3
- mass density (342.52 K, 100000 kPa, x2 = 0): 964.68 ± 0.64 kg/m3
- mass density (342.99 K, 100 kPa, x2 = 0.5469): 838.63 ± 0.63 kg/m3
- mass density (343 K, 1000 kPa, x2 = 0.5469): 839.58 ± 0.61 kg/m3
- mass density (343 K, 5000 kPa, x2 = 0.5469): 843.51 ± 0.62 kg/m3
- mass density (343 K, 10000 kPa, x2 = 0.5469): 848.2 ± 0.63 kg/m3
- mass density (343.01 K, 20000 kPa, x2 = 0.5469): 856.98 ± 0.64 kg/m3
- mass density (343.01 K, 30000 kPa, x2 = 0.5469): 864.93 ± 0.66 kg/m3
- mass density (343.01 K, 40000 kPa, x2 = 0.5469): 872.29 ± 0.67 kg/m3
- mass density (343.01 K, 60000 kPa, x2 = 0.5469): 885.57 ± 0.71 kg/m3
- mass density (343.01 K, 80000 kPa, x2 = 0.5469): 897.36 ± 0.73 kg/m3
- mass density (343.02 K, 100 kPa, x2 = 0.7308): 814.17 ± 0.62 kg/m3
- mass density (343.02 K, 100000 kPa, x2 = 0.5469): 907.94 ± 0.74 kg/m3
- mass density (343.03 K, 1000 kPa, x2 = 0.7308): 815.11 ± 0.62 kg/m3
- mass density (343.03 K, 5000 kPa, x2 = 0.7308): 819.06 ± 0.62 kg/m3
- mass density (343.03 K, 80000 kPa, x2 = 0.8787): 849.39 ± 0.81 kg/m3
- mass density (343.04 K, 100 kPa, x2 = 0.3116): 864.74 ± 0.63 kg/m3
- mass density (343.04 K, 100 kPa, x2 = 0.8787): 792.02 ± 0.63 kg/m3
- mass density (343.04 K, 1000 kPa, x2 = 0.3116): 865.7 ± 0.61 kg/m3
- mass density (343.04 K, 1000 kPa, x2 = 0.8787): 792.98 ± 0.62 kg/m3
- mass density (343.04 K, 5000 kPa, x2 = 0.8787): 796.88 ± 0.63 kg/m3
- mass density (343.04 K, 10000 kPa, x2 = 0.7308): 823.7 ± 0.63 kg/m3
- mass density (343.04 K, 10000 kPa, x2 = 0.8787): 801.5 ± 0.63 kg/m3
- mass density (343.04 K, 20000 kPa, x2 = 0.7308): 832.39 ± 0.65 kg/m3
- mass density (343.04 K, 20000 kPa, x2 = 0.8787): 810.09 ± 0.66 kg/m3
- mass density (343.04 K, 30000 kPa, x2 = 0.7308): 840.28 ± 0.67 kg/m3
- mass density (343.04 K, 30000 kPa, x2 = 0.8787): 817.86 ± 0.68 kg/m3
- mass density (343.04 K, 40000 kPa, x2 = 0.7308): 847.55 ± 0.69 kg/m3
- mass density (343.04 K, 40000 kPa, x2 = 0.8787): 825.03 ± 0.71 kg/m3
